According to patent US10919885B2, “Compounds and uses thereof” (Yumanity Therapeutics, Inc., priority 2018, dated 2021):

What was measured:
human SCD5 = human SCD5 (Homo sapiens (Human), UniProt Q86SK9); experiment: Yeast growth assay, strain expressing human SCD5 as the sole desaturase (reduced growth as surrogate for SCD inhibition); assay type: cell-based; details: yeast with OLE1 deleted expressing human SCD5 from a plasmid; growth read as OD600 after 40 h at 30° C.; top drug concentration 33.3 μM
Protocol: (§1) Strains expressing SCD1 or SCD5 as the sole desaturase, the human SCD1 and SCD5 genes were used to evaluate inhibition of SCD1/SCD5 using reduced growth as a surrogate for SCD inhibition. These yeast strains express human SCD1 or SCD5 from a plasmid harbored in a strain in which the yeast OLE1 gene is deleted.
(§2) All compound profiling experiments were performed using the same basic protocol. Yeast were cultured using standard techniques in complete synthetic media lacking uracil and containing yeast nitrogen base supplemented with 2% (w/v) glucose (SD-Ura) Starter cultures were inoculated in 3 mL SD-Ura media containing 0.01% tween and 0.2 mM palmitoleic and oleic acid. Cultures were incubated overnight in a 30° C. shaker incubator (225 rpm). Saturated morning cultures were centrifuged, washed in SD-Ura media lacking TWEEN-20 and fatty acids, and then diluted 1:20 in fresh SD-Ura media also lacking TWEEN-20 and fatty acids.
(§3) Compound administration was performed in two separate steps. First, 15 μL of SD-Ura was dispensed into clear 384-well assay plates using a MULTIDROP™ Combi reagent dispenser. […] The cultures described above were centrifuged and washed with media lacking TWEEN-20 or oleic and palmitoleic acids.
(§4) After yeast delivery, assay plates were incubated under humidified conditions at 30° C. for 40 h. Yeast growth was monitored by reading the OD600 of each well using a microplate reader (Perkin Elmer EnVision™).

human SCD1 = human SCD1 (Homo sapiens (Human), UniProt O00767); experiment: Yeast growth assay, strain expressing human SCD1 as the sole desaturase (reduced growth as surrogate for SCD inhibition); assay type: cell-based; details: yeast with OLE1 deleted expressing human SCD1 from a plasmid; growth read as OD600 after 40 h at 30° C.; top drug concentration 33.3 μM
Protocol: as §1, §2, §3, §4

Chain of human SCD1 (O00767 whole entry): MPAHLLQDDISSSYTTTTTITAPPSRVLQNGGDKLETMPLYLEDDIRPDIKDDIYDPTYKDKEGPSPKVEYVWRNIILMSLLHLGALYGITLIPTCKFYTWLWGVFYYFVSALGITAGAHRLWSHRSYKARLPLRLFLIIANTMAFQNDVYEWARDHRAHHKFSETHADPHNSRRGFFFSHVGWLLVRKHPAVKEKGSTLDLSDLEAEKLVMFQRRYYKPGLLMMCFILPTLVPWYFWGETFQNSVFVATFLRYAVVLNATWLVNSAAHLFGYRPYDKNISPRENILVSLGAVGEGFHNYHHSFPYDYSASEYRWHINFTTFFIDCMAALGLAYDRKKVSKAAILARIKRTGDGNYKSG
Chain of human SCD5 (Q86SK9 whole entry): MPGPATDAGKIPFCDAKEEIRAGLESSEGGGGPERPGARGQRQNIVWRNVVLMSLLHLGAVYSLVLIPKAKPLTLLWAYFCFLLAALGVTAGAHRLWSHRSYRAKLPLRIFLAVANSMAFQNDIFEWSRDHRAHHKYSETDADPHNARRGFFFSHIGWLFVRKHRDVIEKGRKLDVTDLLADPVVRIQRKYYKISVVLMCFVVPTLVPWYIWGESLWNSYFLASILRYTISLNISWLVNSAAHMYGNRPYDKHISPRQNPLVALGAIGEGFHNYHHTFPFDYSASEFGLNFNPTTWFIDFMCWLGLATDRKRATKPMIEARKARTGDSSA

Row | Compound | IC50 (human SCD5) | IC50 (human SCD1)
1 | COc1ccc(C2CCCN2C(=O)c2cc(-c3ccc(C(F)(F)F)cc3)on2)cc1 (stereo not drawn) [Compound 381] | > 45 µM | > 45 µM
2 | O=C(Nc1cnn(Cc2cccc(F)c2)c1)c1cc(C2(O)CCC2)on1 [Compound 100] | 20 µM | 3.1 µM
3 | O=C(Nc1cnn(Cc2ccccc2)c1)c1cc(C2CC2)on1 [Compound 119, N-(1-benzyl-1H-pyrazol-4-yl)-5-cyclopropylisoxazole-3-carboxamide] | 2 µM | 0.11 µM
4 | N#Cc1ccccc1-c1cc(C(=O)Nc2cnn(Cc3cccc(F)c3)c2)no1 [Compound 103] | > 45 µM | > 45 µM
5 | C=Cc1cc(C(=O)Nc2cnn(Cc3cccc(F)c3)c2)no1 [Compound 106, N-(1-(3-fluorobenzyl)-1H-pyrazol-4-yl)-5-vinylisoxazole-3-carboxamide] | 1.9 µM | 0.048 µM
6 | Cc1c(NC(=O)c2cc(-c3ccco3)on2)cnn1Cc1ccc(Cl)c(Cl)c1 [Compound 21] | > 45 µM | > 45 µM
7 | C#Cc1cc(C(=O)Nc2cnn(Cc3cccc(F)c3)c2)no1 [Compound 154, 5-ethynyl-N-(1-(3-fluorobenzyl)-1H-pyrazol-4-yl)isoxazole-3-carboxamide] | 5.2 µM | 1.6 µM
8 | COc1ccc(C2CCCN2C(=O)c2cc(-c3ccc4ncoc4c3)on2)cc1 (stereo not drawn) [Compound 401] | > 45 µM | > 45 µM
9 | O=C(Nc1cnn(Cc2ccccc2)c1)c1cc(-c2cnsc2)on1 [Compound 146] | > 45 µM | 11 µM
10 | COc1ccc(-c2cc(NC(=O)[C@@H]3CCCN3c3ccccc3)on2)cc1 [Compound 445] | > 45 µM | > 45 µM
11 | O=C(c1cc(-c2ccc(F)cn2)on1)N1CC(c2ccccc2)C1 [Compound 243, (5-(5-fluoropyridin-2-yl)isoxazol-3-yl)(3-phenylazetidin-1-yl)methanone] | 1.5 µM | 1.6 µM
12 | O=C(Nc1cnn(Cc2ccccc2)c1)c1cc(-c2cccc(F)c2)on1 [Compound 144] | > 45 µM | > 45 µM
13 | O=C(Nc1cnn(Cc2cccc(F)c2)c1)c1cc(C2COC2)on1 [Compound 139, N-(1-(3-fluorobenzyl)-1H-pyrazol-4-yl)-5-(oxetan-3-yl)isoxazole-3-carboxamide] | 6.97 µM | 0.737 µM
14 | O=C(Nc1cnn(Cc2cnccc2C(F)(F)F)c1)c1cc(-c2ccccn2)on1 [Compound 197, 5-(pyridin-2-yl)-N-(1-{[4-(trifluoromethyl)pyridin-3-yl]methyl}-1H-pyrazol-4-yl)-1,2-oxazole-3-carboxamide] | – | > 45 µM
15 | COC1(c2cc(C(=O)Nc3cnn(Cc4cccc(F)c4)c3)no2)CCC1 [Compound 115, N-(1-(3-fluorobenzyl)-1H-pyrazol-4-yl)-5-(1-methoxycyclobutyl)isoxazole-3-carboxamide] | – | 0.34 µM
16 | O=C(Nc1cnn(Cc2cccc(F)c2)c1)c1cc(-c2ccco2)on1 [Compound 30, N-[1-[(3-fluorophenyl)methyl]pyrazol-4-yl]-5-(2-furyl)isoxazole-3-carboxamide] | – | 0.01 µM
17 | O=C(c1cc(-c2ccccc2)on1)N1CC2(C1)CC(O)(c1ccccc1)C2 [Compound 226, (6-hydroxy-6-phenyl-2-azaspiro[3.3]heptan-2-yl)-(5-phenylisoxazol-3-yl)methanone] | – | 12 µM
18 | COc1ccc(C2CCCN2C(=O)c2cc(-c3ccc4c(c3)OCO4)on2)c(F)c1 (stereo not drawn) [Compound 452] | – | > 45 µM
19 | O=C(Nc1cnn(Cc2ccccc2C(F)(F)F)c1)c1cc(-c2ccco2)on1 [Compound 14, 5-(furan-2-yl)-N-(1-(2-(trifluoromethyl)benzyl)-1H-pyrazol-4-yl)isoxazole-3-carboxamide] | – | > 45 µM
20 | O=C(c1cc(-c2ccccc2)on1)N1CCC(c2cccc(F)c2)CC1 [Compound 307, [4-(3-fluorophenyl)-1-piperidyl]-(5-phenylisoxazol-3-yl)methanone] | – | > 45 µM
21 | O=C(Nc1cnn(Cc2ccccc2)c1)c1cc(N2CC[C@@H](O)C2)on1 [Compound 186, (R)—N-(1-benzyl-1H-pyrazol-4-yl)-5-(3-hydroxypyrrolidin-1-yl)isoxazole-3-carboxamide] | – | 2 µM
22 | CC(C)c1cc(C(=O)Nc2cnn(Cc3ccccc3)c2)no1 [Compound 117, N-(1-benzyl-1H-pyrazol-4-yl)-5-isopropylisoxazole-3-carboxamide] | – | 0.026 µM
23 | O=C(c1cc(N2CCOCC2)on1)N1CC(c2ccccc2)C1 [Compound 248] | – | 33 µM
24 | O=C(Nc1cnn(Cc2ccccc2)c1)c1noc2c1CCCC2 [Compound 156, N-(1-benzyl-1H-pyrazol-4-yl)-4,5,6,7-tetrahydrobenzo[d]isoxazole-3-carboxamide] | – | 0.01 µM
25 | CC(C)c1cc(C(=O)N2CCC(c3cccc(F)c3)C2)no1 (stereo not drawn) [Compound 350] | – | > 45 µM

Row | Compound | IC50 (human SCD5) | IC50 (human SCD1)
26 | O=C(Nc1cnn(Cc2ccccc2)c1)c1cc(-c2cnco2)on1 [Compound 149, N-(1-benzyl-1H-pyrazol-4-yl)-5-(oxazol-5-yl)isoxazole-3-carboxamide] | – | > 45 µM
27 | CC(C)c1cc(C(=O)N2CC(Cc3ccccc3)C2)no1 [Compound 251] | – | > 45 µM
28 | O=C(c1cc(-c2ccc3c(c2)OCO3)on1)N1CCCC1c1cccc(Br)c1 (stereo not drawn) [Compound 388] | – | > 45 µM
29 | COc1cccc(C2CCCN2C(=O)c2cc(-c3ccc4c(c3)OCO4)on2)c1 (stereo not drawn) [Compound 365] | – | > 45 µM
30 | O=C(Nc1cnn(Cc2cnccc2C(F)(F)F)c1)c1noc2c1CCCC2 [Compound 194, N-(1-{[4-(trifluoromethyl)pyridin-3-yl]methyl}-1H-pyrazol-4-yl)-4,5,6,7-tetrahydro-1,2-benzoxazole-3-carboxamide] | – | 25 µM
31 | Cc1nn(C)c2cc(-c3cc(C(=O)N4COCC4c4ccccc4)no3)ccc12 (stereo not drawn) [Compound 419] | – | > 45 µM
32 | O=C(Nc1cnn(Cc2ccccc2)c1)c1cc(-c2ccco2)no1 [Compound 11, N-(1-benzylpyrazol-4-yl)-3-(2-furyl)isoxazole-5-carboxamide] | – | 0.05 µM
33 | O=C(Nc1cnn(Cc2cccc(F)c2)c1)c1cc(C2CCCCC2)on1 [Compound 83, 5-cyclohexyl-N-(1-(3-fluorobenzyl)-1H-pyrazol-4-yl)isoxazole-3-carboxamide] | – | 0.066 µM
34 | O=C(Nc1cnn(Cc2ccccc2)c1)c1cc(-c2ncccc2F)on1 [Compound 122] | – | 4.7 µM
35 | O=C(c1cc(-c2ccccc2)on1)N1CCCC1c1ccccc1 (stereo not drawn) [Compound 387] | – | > 45 µM
36 | O=C(Nc1cnn(Cc2ccccc2)c1)c1cc(N2CC[C@H](O)C2)on1 [Compound 187] | – | 15 µM
37 | Cn1cc(-c2cc(C(=O)N3CCC[C@H]3c3ccccc3)no2)ccc1=O [Compound 429] | – | 36.3 µM
38 | O=C(Nc1cnn(Cc2ccccc2Cl)c1)c1cc(-c2ccco2)on1 [Compound 23, N-[1-[(2-chlorophenyl)methyl]pyrazol-4-yl]-5-(2-furyl)isoxazole-3-carboxamide] | – | > 45 µM
39 | O=C(c1cc(-c2ccc3c(c2)OCO3)on1)N1CCCC1c1ccccc1 (stereo not drawn) [Compound 354] | – | > 45 µM
40 | O=C(Nc1cnn(Cc2ccccc2)c1)c1cc(-c2ccccn2)on1 [Compound 8, N-(1-benzylpyrazol-4-yl)-5-(2-pyridyl)isoxazole-3-carboxamide] | – | 0.7 µM
41 | O=C(Nc1cnn(Cc2ccccc2F)c1)c1cc(-c2ccccc2)on1 [Compound 111] | – | 9.4 µM
42 | O=C(Nc1cnn(Cc2ccc(F)cc2)c1)c1cc(-c2ccco2)on1 [Compound 18, N-[1-[(4-fluorophenyl)methyl]pyrazol-4-yl]-5-(2-furyl)isoxazole-3-carboxamide] | – | > 45 µM
43 | O=C(c1cc(-c2ccc3c(c2)OCO3)on1)N1CCCC1c1ccc(Br)cc1 (stereo not drawn) [Compound 389] | – | > 45 µM
44 | O=C(c1cc(-c2ccc3c(c2)OCO3)on1)N1CCC(c2ccccc2C(F)(F)F)CC1 [Compound 302, [5-(1,3-benzodioxol-5-yl)isoxazol-3-yl]-[4-[2-(trifluoromethyl)phenyl]-1-piperidyl]methanone] | – | > 45 µM
45 | O=C(c1cc(-c2ccc3c(c2)OCO3)on1)N1CCOc2ccccc21 [Compound 262] | – | > 45 µM
46 | O=C(Nc1cnn(Cc2ccccc2)c1)c1cc(-c2ccco2)on1 [Compound 4, N-(1-benzyl-1H-pyrazol-4-yl)-5-(furan-2-yl)isoxazole-3-carboxamide] | – | 0.09 µM
47 | COc1ccc([C@@H]2CCCN2C(=O)c2cc(-c3ccc4c(c3)OCO4)on2)cc1 [Compound 359] | – | > 45 µM
48 | O=C(Nc1cnn(Cc2cc(F)ccc2Cl)c1)c1cc(-c2ccco2)on1 [Compound 28, N-(1-(2-chloro-5-fluorobenzyl)-1H-pyrazol-4-yl)-5-(furan-2-yl)isoxazole-3-carboxamide] | – | > 45 µM
49 | O=C(c1cc(-c2ccc3c(c2)OCO3)on1)N1CCCC1c1nc2ccccc2o1 (stereo not drawn) [Compound 461] | – | > 45 µM
50 | O=C(Nc1cnn(Cc2cccc(F)c2)c1)c1noc2c1CCCC2 [Compound 193, N-{1-[(3-fluorophenyl)methyl]-1H-pyrazol-4-yl}-4,5,6,7-tetrahydro-1,2-benzoxazole-3-carboxamide] | – | 0.01 µM
